Data published in patent US20140163061A1, “Methods For Reducing Blood Pressure” (FibroGen, Inc., priority 2008, published 2014).

Tested on: Nx rats (5/6 nephrectomy, hypertensive chronic kidney disease)
Assay: Nx rats treated with various HIF prolyl hydroxylase inhibitors, change in systolic blood pressure after four weeks, Example 4
Type: in vivo, rat
Method: A characteristic pathophysiology found in the uremic chronic kidney disease (CKD) population is hypertension. […] (Priyadarshi et al. (2002) Kidney Int 61:542-546; Coleman et al. (2006) Proc Natl Acad Sci USA 103:5965-5970.) The surgical procedure used to generate the rat remnant kidney was performed according to modification of the procedure described by Priyadarshi et al. (supra) or according to modification of the procedure described by Tanaka et al. (2005, Lab Invest 85:1292-1307). Separate studies used either male Sprague Dawley rats (280-300 g) or female Wistar rats (220-250 g).
Animals were divided into two groups of which one group (sham) underwent sham surgery and the other group (Nx) was subjected to 5/6 nephrectomy as follows. Animals were anesthetized under isoflurane, and a midline abdominal incision was made, followed by blunt dissection of the renal pedicles. Two or three branches of the left renal artery were ligated to infarct two thirds of the left kidney, while the right kidney underwent simultaneous nephrectomy. The infarct was verified by observing the change in kidney color. Animal body temperature was maintained constant, and warm (˜37° C.) saline (1.0 mL) was administered directly into the abdomen. Thereafter, the incision was sutured and the animal was allowed to recover and have free access to regular food and water. Animal body weight and mortality were closely monitored.
Starting 35 days after surgery, Nx and sham animals were randomly divided into groups and treated with either vehicle or compound A. Compound was dosed three times per week by oral gavage at 20 or 40 mg/kg compound per dose. Blood pressure (BP) was measured using a Kent XBP1000 system (Kent Scientific Corp., Torrington, Conn.) or a Muromachi tail-cuff blood pressure system (Muromachi Kikai Co., Ltd., Tokyo, Japan), both having volume/pressure recording technology and used according to the manufacturer's instruction. Rats were slightly warmed under a lamp and conditioned carefully before the measurement. BP was recorded as the mean value of 3 separate measurements obtained at each session and reported herein as mean±SEM. Results are compared using 1-way analysis of variance (ANOVA) and Student-Newman-Keuls method (SigmaStat, SPSS Science, Chicago, Ill.).
In another series of experiments, rats subjected to 5/6 nephrectomy were treated 35 days after surgery according to the dosing schedule described in Example 3 above with a HIF prolyl hydroxylase inhibitor. Individual compound selected from the group consisting of compounds A and C-K were administered by oral gavage at 8, 20, 30, or 40 mg/kg (see Table 1 and Table 2). Systolic blood pressure was recorded at day 35 (baseline) and again immediately following the last dose of compound. Table 1 and Table 2 show changes in systolic blood pressure following four weeks of oral administration of various compounds of the present invention to Nx rats.

Row | Compound | SBP (mmHg) Change from Vehicle (8 mg/kg oral) | SBP (mmHg) Change from Vehicle (20 mg/kg oral) | other results
1 | COc1ccc(Oc2ccc3c(O)c(C(=O)NCC(=O)O)ncc3c2)cc1 [C, {[4-hydroxy-7-(4-methoxy-phenoxy)-isoquinoline-3-carbonyl]-amino}-acetic acid] | – | – | SBP (mmHg) Change from Baseline (30 mg/kg oral): −13.72 mmHg; SBP (mmHg) Change from Vehicle (30 mg/kg oral): −34.03 mmHg
2 | CC(C)Oc1ccc2c(O)c(C(=O)NCC(=O)O)nc(C#N)c2c1 [Compound D, [(1-cyano-4-hydroxy-7-isopropoxy-isoquinoline-3-carbonyl)-amino]-acetic acid] | −12.4 mmHg | −24.73 mmHg | SBP (mmHg) Change from Baseline (8 mg/kg oral): −22.14 mmHg; SBP (mmHg) Change from Baseline (20 mg/kg oral): −9.25 mmHg
3 | COc1cccc(Cn2ccc3c(O)c(C(=O)NCC(=O)O)nc(C#N)c32)c1 [E, {[7-cyano-4-hydroxy-1-(3-methoxy-benzyl)-1H-pyrrolo[2,3-c]pyridine-5-carbonyl]-amino}-acetic acid] | – | −18.55 mmHg | SBP (mmHg) Change from Baseline (20 mg/kg oral): −7.12 mmHg
4 | N#Cc1nc(C(=O)NCC(=O)O)c(O)c2ccn(Cc3ccc4ccccc4c3)c12 [F, [(7-cyano-4-hydroxy-1-naphthalen-2-ylmethyl-1H-pyrrolo[2,3-c]pyridine-5-carbonyl)-amino]-acetic acid] | −23.88 mmHg | – | SBP (mmHg) Change from Baseline (8 mg/kg oral): −10.58 mmHg
5 | N#Cc1nc(C(=O)NCC(=O)O)c(O)c2ccn(Cc3ccccc3F)c12 [G, {[7-cyano-1-(2-fluoro-benzyl)-4-hydroxy-1H-pyrrolo[2,3-c]pyridine-5-carbonyl]-amino}-acetic acid] | −19.27 mmHg | – | –
6 | COc1ccc(Cn2c(Cl)c(Cl)c3c(O)c(C(=O)NCC(=O)O)nc(C#N)c32)cc1 [H, {[2,3-dichloro-7-cyano-4-hydroxy-1-(4-methoxy-benzyl)-1H-pyrrolo[2,3-c]pyridine-5-carbonyl]-amino}-acetic acid] | – | −15.73 mmHg | –
7 | N#Cc1nc(C(=O)NCC(=O)O)c(O)c2c(Oc3ccccc3)cccc12 [I, [(1-cyano-4-hydroxy-5-phenoxy-isoquinoline-3-carbonyl)-amino]-acetic acid] | – | −11.00 mmHg | –
8 | Cc1cccc(C)c1Oc1ccc2c(O)c(C(=O)NCC(=O)O)nc(C#N)c2c1 [J, {[1-cyano-7-(2,6-dimethyl-phenoxy)-4-hydroxy-isoquinoline-3-carbonyl]-amino}-acetic acid] | −2.66 mmHg | – | –
9 | COc1ccc(Cn2cc(Br)c3c(O)c(C(=O)NCC(=O)O)nc(C#N)c32)cc1 [K, {[3-bromo-7-cyano-4-hydroxy-1-(4-methoxy-benzyl)-1H-pyrrolo[2,3-c]pyridine-5-carbonyl]-amino}-acetic acid] | −19.92 mmHg | – | –
